Seven compounds from publication PMC11874195, “Structural requirements of KAI2 ligands for activation of signal transduction” (Proceedings of the National Academy of Sciences of the …, 2025) can be followed below.

The term IC50 denotes the point on the concentration scale where inhibition reaches its midpoint.

Experiment [1] addresses T1, KAI2 (Arabidopsis thaliana, UniProt Q9SZU7).
T1 sequence (Q9SZU7 1-270): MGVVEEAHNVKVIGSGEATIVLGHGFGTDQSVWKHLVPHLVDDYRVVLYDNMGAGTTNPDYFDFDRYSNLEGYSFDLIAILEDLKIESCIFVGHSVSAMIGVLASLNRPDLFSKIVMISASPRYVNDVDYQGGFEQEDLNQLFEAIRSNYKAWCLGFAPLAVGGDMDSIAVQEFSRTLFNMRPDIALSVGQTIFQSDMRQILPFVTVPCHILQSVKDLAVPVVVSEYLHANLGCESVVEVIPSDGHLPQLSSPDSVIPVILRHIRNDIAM
Put plainly: biochemical. The note with it: 0.5 uM dYLG substrate, 10 min. Set-up: Competitive inhibition of dYLG (0.5 uM) hydrolysis by purified recombinant KAI2, fluorescence read-out. The procedure: The purified KAI2 (1 µg) was incubated with dYLG (0.5 µM) in the absence or presence of dMGer analogs for 10 min. Fluorescence intensity was measured using the Varioskan LUX plate reader (Thermo Fisher Scientific), with excitation and detection wavelengths of 480 and 520 nm, respectively. The IC50 values were calculated using the Enzyme Kinetics module of the SigmaPlot 14 program. Additional detailed methods are described in SI Appendix, Materials and Methods. To produce KAI2 protein, KAI2 cDNA was cloned into the pCold II vector, and KAI2 protein was expressed and purified as previously described(5). Briefly, the plasmid was transformed into BL21, the resulting transformant cells were precultured overnight in 2.5 mL LB medium and then cells were grown in 200 mL TB medium at 35 °C to an OD600 ~0.6. Protein expression was induced by IPTG addition, and inductions were conducted at 16 °C for 20 h. Cells were harvested and then suspended in the protein extraction buffer (50 mM Tris-HCl pH 8.0, BugBuster protein extraction reagent, and 20U of Benzonase, and the constituent proteins were purified by affinity column chromatography. The purified KAI2 (1 µg) was incubated with dYLG (0.5 µM) in the absence or presence of dMGer analogs for 10 min. We first conducted competitive inhibition assays to determine whether the carba-dMGers could bind to the ligand binding pocket of KAI2. In these assays, a profluorescent probe, desmethyl-Yoshimulactone green (dYLG), was used as a substrate, and the KAI2 binding activity was assessed by the inhibitor concentrations necessary to halve the response (IC50) for fluorophore formation. […] Differential scanning fluorimetry (DSF) assays were also performed to evaluate the effect of the dMGer analogs on KAI2 destabilization. In the DSF assay, ligand–protein interactions are monitored by changes in the melting temperature (Tm); effective agonists, such as GR24^ent^-5DS and dGR24^ent^-5DS, lower the Tm value, that is, thermally destabilize the KAI2 protein ([15], [35]).

In experiment [2] the target is T1, KAI2. Put plainly: X-ray crystal structure at […] Å (soak); also dYLG competition IC50 and DSF. The experiment is classed as biochemical.
Experiment [3] concerns the target T1, KAI2. The experiment is described as follows: competitive dYLG hydrolysis assay with purified KAI2; also DSF and cleavage kinetics (K1/[…] =[…]). The experiment is classed as biochemical.
The target of experiment [4] is T1, KAI2. Put plainly: competitive dYLG hydrolysis assay with purified KAI2; also DSF (Tm […] to […] °C) and HPLC hydrolysis (K1/[…] =[…]). Type of experiment: biochemical.

`O=C1C=C[C@@H](Oc2ccc(-c3ccccc3)cc2[N+](=O)[O-])O1` [(−)-dMGer]: the IC50 at KAI2 [1] worked out at 3.6 µM.
On to `O=C1C=C[C@H](Cc2ccc(-c3ccccc3)cc2[N+](=O)[O-])O1` [(+)-6′-carba-dMGer], for which, at KAI2 [2], the IC50 is 2.5 µM.
As to `O=C1C=C[C@@H](Cc2ccc(-c3ccccc3)cc2[N+](=O)[O-])O1` [(−)-6′-carba-dMGer], the IC50 at KAI2 [1] was found to be 11 µM.
Take `O=C1CC(CCc2ccccc2Br)O1` (stereo not shown) [2Br-PEO, 4-(2-bromophenethyl)oxetan-2-one]: the IC50 on KAI2 [1] is 0.22 µM.
On to `O=C1C=C[C@H](Oc2ccc(-c3ccccc3)cc2[N+](=O)[O-])C1` [(+)-1′-carba-dMGer], for which the IC50 on KAI2 [3] is 78 µM.
Turning to `O=C1C=C[C@@H](Oc2ccc(-c3ccccc3)cc2[N+](=O)[O-])C1` [(−)-1′-carba-dMGer], the IC50 at KAI2 [1] came to 152 µM.
On KAI2 [4], `O=C1C=C[C@H](Oc2ccc(-c3ccccc3)cc2[N+](=O)[O-])O1` [(+)-dMGer] gave an IC50 of 0.16 µM.
